Results from patent US8242109B2, “Compositions and methods relating to novel compounds and targets thereof” (priority 2007, dated 2012).
Read-outs that look alike come from different tables or passages of the source.

Assays:
F1F0-ATPase = biological target: T1, F1F0-ATPase (Bos taurus, UniProt P13621); experiment: Inhibition of ATP synthesis and hydrolysis by the F1F0-ATPase; assay type: biochemical
T1 construct: from tissue; host or cells: bovine sub-mitochondrial particles (SMPs)
Procedure: (§1) The compounds listed in Table 4 were tested for activity against F1F0-ATPase and cytotoxicity in Ramos cells. Inhibition of ATP synthesis and hydrolysis by the F1F0-ATPase was measured as described in K. M. Johnson et al., Chemistry & Biology 2005, 12, 485-496. Cytotoxicity in Ramos cells was measured as described in K. M. Johnson et al., Chemistry & Biology 2005, 12, 485-496, or using the alamarBlue™ Assay with fluorescence detection (U.S. Pat. No. 5,501,959) as supplied and described by Invitrogen (Carlsbad, Calif.).

Ramos cells = experiment: Cytotoxicity in Ramos cells; assay type: cell-based; conditions: Homo sapiens, read-out: Ramos Cell EC50
Procedure: as §1

CCOCCNC(=O)Nc1ccc(C2=NC(Cc3ccccc3Cl)C(=O)Nc3ccc(Cl)cc32)cc1 (stereo not shown) [Compound 10, (Z)-1-(4-(7-chloro-3-(2-chlorobenzyl)-2-oxo-2,3-dihydro-1H-benzo[e][1,4]diazepin-5-yl)phenyl)-3-(2-ethoxyethyl)urea]
IC50 (F1F0-ATPase; read-out: ATPase IC50): 5 to 10 µM
EC50 (Ramos cells; cytotoxicity in Ramos cells): < 5 µM

O=C(Nc1ccc(C2=NC(Cc3ccccc3Br)C(=O)Nc3ccc(Cl)cc32)cc1)NC1CC1 (stereo not shown) [Compound 14, (Z)-1-(4-(3-(2-bromobenzyl)-7-chloro-2-oxo-2,3-dihydro-1H-benzo[e][1,4]diazepin-5-yl)phenyl)-3-cyclopropylurea]
IC50 (F1F0-ATPase; read-out: ATPase IC50): 5 to 10 µM
EC50 (Ramos cells; cytotoxicity in Ramos cells): < 5 µM

CN1C(=O)C(Cc2ccccc2Br)N=C(c2ccc3[nH]c(=O)[nH]c3c2)c2cc(Cl)ccc21 (stereo not shown) [Compound 35, (Z)-3-(2-bromobenzyl)-7-chloro-1-methyl-5-(2-oxo-2,3-dihydro-1H-benzo[d]imidazol-5-yl)-1H-benzo[e][1,4]diazepin-2(3H)-one]
EC50 (Ramos cells; Ramos): 5 to 10 µM

CCc1ccc(CC2N=C(c3ccc(O)cc3)c3cc(Cl)ccc3N(C)C2=O)cc1 (stereo not shown) [Compound 27, (Z)-7-chloro-3-(4-ethylbenzyl)-5-(4-hydroxyphenyl)-1-methyl-1H-benzo[e][1,4]diazepin-2(3H)-one]
IC50 (F1F0-ATPase): 5 to 10 µM
EC50 (Ramos cells; cytotoxicity in Ramos cells): 5 to 10 µM

CCc1cccc(CC2N=C(c3ccc(O)cc3)c3cc(Cl)ccc3NC2=O)c1 (stereo not shown) [Compound 25, (Z)-7-chloro-3-(3-ethylbenzyl)-5-(4-hydroxyphenyl)-1H-benzo[e][1,4]diazepin-2(3H)-one]
IC50 (F1F0-ATPase): 5 to 10 µM
EC50 (Ramos cells; cytotoxicity in Ramos cells): 5 to 10 µM

CN1C(=O)C(Cc2ccccc2C(F)(F)F)N=C(c2ccc(O)cc2)c2cc(Cl)ccc21 (stereo not shown) [Compound 32, (Z)-7-chloro-5-(4-hydroxyphenyl)-1-methyl-3-(2-(trifluoromethyl)benzyl)-1H-benzo[e][1,4]diazepin-2(3H)-one]
IC50 (F1F0-ATPase): 5 to 10 µM
EC50 (Ramos cells; cytotoxicity in Ramos cells): 5 to 10 µM

CN1C(=O)C(Cc2ccc(Br)cc2)N=C(c2ccc(O)cc2)c2cc(Cl)ccc21 (stereo not shown) [Compound 38, (Z)-3-(4-bromobenzyl)-7-chloro-5-(4-hydroxyphenyl)-1-methyl-1H-benzo[e][1,4]diazepin-2(3H)-one]
IC50 (F1F0-ATPase): < 5 µM
EC50 (Ramos cells; cytotoxicity in Ramos cells): 5 to 10 µM

Cc1ccccc1CC1N=C(c2ccc(O)cc2)c2cc(Cl)ccc2N(C)C1=O (stereo not shown) [Compound 18, (Z)-7-chloro-5-(4-hydroxyphenyl)-1-methyl-3-(2-methylbenzyl)-1H-benzo[e][1,4]diazepin-2(3H)-one]
IC50 (F1F0-ATPase): > 10 µM
EC50 (Ramos cells; cytotoxicity in Ramos cells): > 10 µM

O=C1Nc2ccc(Cl)cc2C(c2ccc3[nH]c(=O)[nH]c3c2)=NC1Cc1ccccc1Cl (stereo not shown) [Compound 41, (Z)-7-chloro-3-(2-chlorobenzyl)-5-(2-oxo-2,3-dihydro-1H-benzo[d]imidazol-5-yl)-1H-benzo[e][1,4]diazepin-2(3H)-one]
IC50 (F1F0-ATPase): < 5 µM
EC50 (Ramos cells; cytotoxicity in Ramos cells): < 5 µM

CNC(=O)Nc1ccc(C2=NC(Cc3ccccc3Cl)C(=O)Nc3ccc(Cl)cc32)cc1 (stereo not shown) [Compound 5, (Z)-1-(4-(7-chloro-3-(2-chlorobenzyl)-2-oxo-2,3-dihydro-1H-benzo[e][1,4]diazepin-5-yl)phenyl)-3-methylurea]
IC50 (F1F0-ATPase): 5 to 10 µM
EC50 (Ramos cells; cytotoxicity in Ramos cells): 5 to 10 µM

CN1C(=O)C(Cc2cccc(Br)c2)N=C(c2ccc(O)cc2)c2cc(Cl)ccc21 (stereo not shown) [Compound 37, (Z)-3-(3-bromobenzyl)-7-chloro-5-(4-hydroxyphenyl)-1-methyl-1H-benzo[e][1,4]diazepin-2(3H)-one]
IC50 (F1F0-ATPase): < 5 µM
EC50 (Ramos cells; cytotoxicity in Ramos cells): 5 to 10 µM

CCc1ccccc1CC1N=C(c2ccc(O)cc2)c2cc(Cl)ccc2NC1=O (stereo not shown) [Compound 23, (Z)-7-chloro-3-(2-ethylbenzyl)-5-(4-hydroxyphenyl)-1H-benzo[e][1,4]diazepin-2(3H)-one]
IC50 (F1F0-ATPase): 5 to 10 µM
EC50 (Ramos cells; cytotoxicity in Ramos cells): 5 to 10 µM

CCc1ccccc1CC1N=C(c2ccc(O)cc2)c2cc(Cl)ccc2N(C)C1=O (stereo not shown) [Compound 24, (Z)-7-chloro-3-(2-ethylbenzyl)-5-(4-hydroxyphenyl)-1-methyl-1H-benzo[e][1,4]diazepin-2(3H)-one]
IC50 (F1F0-ATPase): 5 to 10 µM
EC50 (Ramos cells; cytotoxicity in Ramos cells): > 10 µM

COCCNC(=O)Nc1ccc(C2=NC(Cc3ccccc3Br)C(=O)Nc3ccc(Cl)cc32)cc1 (stereo not shown) [Compound 15, (Z)-1-(4-(3-(2-bromobenzyl)-7-chloro-2-oxo-2,3-dihydro-1H-benzo[e][1,4]diazepin-5-yl)phenyl)-3-(2-methoxyethyl)urea]
IC50 (F1F0-ATPase; read-out: ATPase IC50): 5 to 10 µM
EC50 (Ramos cells; cytotoxicity in Ramos cells): < 5 µM

CC(C)c1cccc(CC2N=C(c3ccc(O)cc3)c3cc(Cl)ccc3N(C)C2=O)c1 (stereo not shown) [Compound 29, (Z)-7-chloro-5-(4-hydroxyphenyl)-3-(3-isopropylbenzyl)-1-methyl-1H-benzo[e][1,4]diazepin-2(3H)-one]
IC50 (F1F0-ATPase): 5 to 10 µM
EC50 (Ramos cells; cytotoxicity in Ramos cells): 5 to 10 µM

CCc1ccc(CC2N=C(c3ccc(O)cc3)c3cc(Cl)ccc3NC2=O)cc1 (stereo not shown) [Compound 28, (Z)-7-chloro-3-(4-ethylbenzyl)-5-(4-hydroxyphenyl)-1H-benzo[e][1,4]diazepin-2(3H)-one]
IC50 (F1F0-ATPase): 5 to 10 µM
EC50 (Ramos cells; cytotoxicity in Ramos cells): 5 to 10 µM

CN(C)CCNC(=O)Nc1ccc(C2=NC(Cc3ccccc3Cl)C(=O)Nc3ccc(Cl)cc32)cc1 (stereo not shown) [Compound 6, (Z)-1-(4-(7-chloro-3-(2-chlorobenzyl)-2-oxo-2,3-dihydro-1H-benzo[e][1,4]diazepin-5-yl)phenyl)-3-(2-(dimethylamino)ethyl)urea]
IC50 (F1F0-ATPase; read-out: ATPase IC50): > 10 µM
EC50 (Ramos cells; cytotoxicity in Ramos cells): < 5 µM

O=C(Nc1ccc(C2=NC(Cc3ccccc3Cl)C(=O)Nc3ccc(Cl)cc32)cc1)NC1CC1 (stereo not shown) [Compound 8, (Z)-1-(4-(7-chloro-3-(2-chlorobenzyl)-2-oxo-2,3-dihydro-1H-benzo[e][1,4]diazepin-5-yl)phenyl)-3-cyclopropylurea]
IC50 (F1F0-ATPase; read-out: ATPase IC50): 5 to 10 µM
EC50 (Ramos cells; cytotoxicity in Ramos cells): < 5 µM

CN1C(=O)C(Cc2ccccc2Cl)N=C(c2ccc(O)cc2)c2cc(Cl)ccc21 (stereo not shown) [Compound 34, (Z)-7-chloro-3-(2-chlorobenzyl)-5-(4-hydroxyphenyl)-1-methyl-1H-benzo[e][1,4]diazepin-2(3H)-one]
IC50 (F1F0-ATPase): < 5 µM
EC50 (Ramos cells; cytotoxicity in Ramos cells): 5 to 10 µM

CC(C)c1ccc(CC2N=C(c3ccc(O)cc3)c3cc(Cl)ccc3N(C)C2=O)cc1 (stereo not shown) [Compound 31, (Z)-7-chloro-5-(4-hydroxyphenyl)-3-(4-isopropylbenzyl)-1-methyl-1H-benzo[e][1,4]diazepin-2(3H)-one]
IC50 (F1F0-ATPase): 5 to 10 µM
EC50 (Ramos cells; cytotoxicity in Ramos cells): 5 to 10 µM

CC(C)NC(=O)Nc1ccc(C2=NC(Cc3ccccc3Cl)C(=O)Nc3ccc(Cl)cc32)cc1 (stereo not shown) [Compound 4, (Z)-1-(4-(7-chloro-3-(2-chlorobenzyl)-2-oxo-2,3-dihydro-1H-benzo[e][1,4]diazepin-5-yl)phenyl)-3-isopropylurea]
IC50 (F1F0-ATPase; read-out: ATPase IC50): 5 to 10 µM
EC50 (Ramos cells; cytotoxicity in Ramos cells): < 5 µM

O=C1Nc2ccc(Cl)cc2C(c2ccc(O)cc2)=NC1Cc1ccccc1Cl (stereo not shown) [Compound 40, (Z)-7-chloro-3-(2-chlorobenzyl)-5-(4-hydroxyphenyl)-1H-benzo[e][1,4]diazepin-2(3H)-onc]
IC50 (F1F0-ATPase): < 5 µM
EC50 (Ramos cells; Ramos): 5 to 10 µM

Cc1cccc(CC2N=C(c3ccc(O)cc3)c3cc(Cl)ccc3NC2=O)c1 (stereo not shown) [Compound 19, (Z)-7-chloro-5-(4-hydroxyphenyl)-3-(3-methylbenzyl)-1H-benzo[e][1,4]diazepin-2(3H)-one]
IC50 (F1F0-ATPase): 5 to 10 µM
EC50 (Ramos cells; Ramos): 5 to 10 µM

CC(C)NC(=O)Nc1ccc(C2=NC(Cc3ccccc3C(F)(F)F)C(=O)Nc3ccc(Cl)cc32)cc1 (stereo not shown) [Compound 2, (Z)-1-(4-(7-chloro-2-oxo-3-(2-(trifluoromethyl)benzyl)-2,3-dihydro-1H-benzo[e][1,4]diazepin-5-yl)phenyl)-3-isopropylurea]
IC50 (F1F0-ATPase; read-out: ATPase IC50): 5 to 10 µM
EC50 (Ramos cells; cytotoxicity in Ramos cells): < 5 µM

CN1C(=O)C(Cc2ccc(C(F)(F)F)cc2)N=C(c2ccc(O)cc2)c2cc(Cl)ccc21 (stereo not shown) [Compound 36, (Z)-7-chloro-5-(4-hydroxyphenyl)-1-methyl-3-(4-(trifluoromethyl)benzyl)-1H-benzo[e][1,4]diazepin-2(3H)-one]
IC50 (F1F0-ATPase): < 5 µM
EC50 (Ramos cells; cytotoxicity in Ramos cells): 5 to 10 µM

O=C1Nc2ccc(Cl)cc2C(c2ccc(O)cc2)=NC1Cc1ccccc1Br (stereo not shown) [Compound 33, (Z)-3-(2-bromobenzyl)-7-chloro-5-(4-hydroxyphenyl)-1H-benzo[e][1,4]diazepin-2(3H)-one]
IC50 (F1F0-ATPase): 5 to 10 µM
EC50 (Ramos cells; Ramos): < 5 µM

CNC(=O)Nc1ccc(C2=NC(Cc3ccccc3Br)C(=O)Nc3ccc(Cl)cc32)cc1 (stereo not shown) [Compound 11, (Z)-1-(4-(3-(2-bromobenzyl)-7-chloro-2-oxo-2,3-dihydro-1H-benzo[e][1,4]diazepin-5-yl)phenyl)-3-methylurea]
IC50 (F1F0-ATPase): 5 to 10 µM
EC50 (Ramos cells; cytotoxicity in Ramos cells): < 5 µM

CC(C)c1ccc(CC2N=C(c3ccc(O)cc3)c3cc(Cl)ccc3NC2=O)cc1 (stereo not shown) [Compound 30, (Z)-7-chloro-5-(4-hydroxyphenyl)-3-(4-isopropylbenzyl)-1H-benzo[e][1,4]diazepin-2(3H)-one]
IC50 (F1F0-ATPase): 5 to 10 µM
EC50 (Ramos cells; cytotoxicity in Ramos cells): 5 to 10 µM

CCOCCNC(=O)Nc1ccc(C2=NC(Cc3ccccc3Br)C(=O)Nc3ccc(Cl)cc32)cc1 (stereo not shown) [Compound 16, (Z)-1-(4-(3-(2-bromobenzyl)-7-chloro-2-oxo-2,3-dihydro-1H-benzo[e][1,4]diazepin-5-yl)phenyl)-3-(2-ethoxyethyl)urea]
IC50 (F1F0-ATPase; read-out: ATPase IC50): 5 to 10 µM
EC50 (Ramos cells; cytotoxicity in Ramos cells): < 5 µM

O=C(NCC(F)(F)F)Nc1ccc(C2=NC(Cc3ccccc3Br)C(=O)Nc3ccc(Cl)cc32)cc1 (stereo not shown) [Compound 13, (Z)-1-(4-(3-(2-bromobenzyl)-7-chloro-2-oxo-2,3-dihydro-1H-benzo[e][1,4]diazepin-5-yl)phenyl)-3-(2,2,2-trifluoroethyl)urea]
IC50 (F1F0-ATPase; read-out: ATPase IC50): < 5 µM
EC50 (Ramos cells; cytotoxicity in Ramos cells): < 5 µM

Cc1cccc(CC2N=C(c3ccc(O)cc3)c3cc(Cl)ccc3N(C)C2=O)c1 (stereo not shown) [Compound 20, (Z)-7-chloro-5-(4-hydroxyphenyl)-1-methyl-3-(3-methylbenzyl)-1H-benzo[e][1,4]diazepin-2(3H)-one]
IC50 (F1F0-ATPase): > 10 µM
EC50 (Ramos cells; cytotoxicity in Ramos cells): > 10 µM
